{"source": "patent US5084082A", "about": "“Soybean plants with dominant selectable trait for herbicide resistance” (priority 1990, dated 1992)", "key": {"W20": {"tested_on": "W20", "experiment": "Test C preemergence (soil) sulfonylurea application", "format": "in vivo, soybean", "conditions": "19 days after treatment", "source_text": "(§1) W20, a line homozygous for a dominant sulfonylurea-resistance mutation, was compared to Williams 82 in terms of response to preemergence application of three sulfonylurea herbicides. The experimental unit consisted of a single 18 cm pot filled with soil (Sassafras loamy sand with 0.8% organic matter and pH 6.7) in which 6 seeds of a given soybean line were planted 2 cm deep. After planting, each pot was sprayed (using a conveyor belt spray apparatus to emulate field application) with one of 22 different treatments including a check sprayed with AGWT (90% acetone, 4% glycerol, 4% water, 2% Tween-20), and 21 different herbicide treatments using AGWT as a carrier. The herbicide treatments included 7 different concentrations (Table IX) each of three sulfonyl-ureas: Compound 5, Compound 4, and Compound 1. Each herbicide x line treatment was replicated three times. After herbicide treatment, pots were transferred to a greenhouse and arranged in a randomized complete block design. Nineteen days after treatment, each pot was rated visually for herbicide injury using the scale described previously. For each herbicide, analysis of variance on injury ratings was performed separately. Fisher's least significant difference (LSD) was used to determine the significance of line mean differences at each rate using the 95% level of confidence."}, "Williams 82": {"tested_on": "Williams 82", "experiment": "Test C preemergence (soil) sulfonylurea application", "format": "in vivo, soybean", "conditions": "19 days after treatment", "source_text": "as §1"}}, "data": [{"molecule": "COc1nc(C)nc(NC(=O)NS(=O)(=O)c2ccccc2Cl)n1", "note": "[Compound 1, 2-chloro-N-[[(4-methoxy-6-methyl-1,3,5-triazin-2-yl)amino]carbonyl]benzenesulfonamide]", "values": [{"measurement": "% Injury", "setting": "W20; W20, 0.3 g/ha preemergence", "value": 0, "unit": "%"}, {"measurement": "% Injury", "setting": "W20; W20, 1 g/ha preemergence", "value": 0, "unit": "%"}, {"measurement": "% Injury", "setting": "W20; W20, 3 g/ha preemergence", "value": 3, "unit": "%"}, {"measurement": "% Injury", "setting": "W20; W20, 10 g/ha preemergence", "value": 3, "unit": "%"}, {"measurement": "% Injury", "setting": "W20; W20, 30 g/ha preemergence", "value": 18, "unit": "%"}, {"measurement": "% Injury", "setting": "W20; W20, 100 g/ha preemergence", "value": 63, "unit": "%"}, {"measurement": "% Injury", "setting": "W20; W20, 300 g/ha preemergence", "value": 65, "unit": "%"}, {"measurement": "% Injury", "setting": "Williams 82; WM 82, 0.3 g/ha preemergence", "value": 30, "unit": "%"}, {"measurement": "% Injury", "setting": "Williams 82; WM 82, 1 g/ha preemergence", "value": 50, "unit": "%"}, {"measurement": "% Injury", "setting": "Williams 82; WM 82, 3 g/ha preemergence", "value": 73, "unit": "%"}, {"measurement": "% Injury", "setting": "Williams 82; WM 82, 10 g/ha preemergence", "value": 95, "unit": "%"}, {"measurement": "% Injury", "setting": "Williams 82; WM 82, 30 g/ha preemergence", "value": 100, "unit": "%"}, {"measurement": "% Injury", "setting": "Williams 82; WM 82, 100 g/ha preemergence", "value": 100, "unit": "%"}, {"measurement": "% Injury", "setting": "Williams 82; WM 82, 300 g/ha preemergence", "value": 100, "unit": "%"}]}]}
